# Tests used:
# [1] = biological target: 6×HIS-tankyrase1 (1091-1325) (Homo sapiens (Human), UniProt O95271); experiment: Tankyrase 1 biochemical assay (AlphaLisa, PARsylation); settings: 400 nM NAD, 60 minutes at RT; read-out: TNKS1 IC50
# [2] = biological target: 6×HIS-tankyrase 2 (946-1162) (Homo sapiens (Human), UniProt Q9H2K2); experiment: Tankyrase 2 biochemical assay (AlphaLisa, PARsylation); settings: 250 nM NAD; read-out: TNKS2 IC50
# [3] = test system: Axin2 accumulation in SW480 cells; experiment: Axin2 384 immunofluorescence assay; type: cell-based; settings: Homo sapiens; SW480 cells, 24 hours; read-out: Axin2 384 IF EC50
# PARP1 = PARP1 (Homo sapiens (Human), UniProt P09874); experiment: PARP1 biochemical assay (Trevigen kit)
# Sequence of PARP1 (P09874 whole entry): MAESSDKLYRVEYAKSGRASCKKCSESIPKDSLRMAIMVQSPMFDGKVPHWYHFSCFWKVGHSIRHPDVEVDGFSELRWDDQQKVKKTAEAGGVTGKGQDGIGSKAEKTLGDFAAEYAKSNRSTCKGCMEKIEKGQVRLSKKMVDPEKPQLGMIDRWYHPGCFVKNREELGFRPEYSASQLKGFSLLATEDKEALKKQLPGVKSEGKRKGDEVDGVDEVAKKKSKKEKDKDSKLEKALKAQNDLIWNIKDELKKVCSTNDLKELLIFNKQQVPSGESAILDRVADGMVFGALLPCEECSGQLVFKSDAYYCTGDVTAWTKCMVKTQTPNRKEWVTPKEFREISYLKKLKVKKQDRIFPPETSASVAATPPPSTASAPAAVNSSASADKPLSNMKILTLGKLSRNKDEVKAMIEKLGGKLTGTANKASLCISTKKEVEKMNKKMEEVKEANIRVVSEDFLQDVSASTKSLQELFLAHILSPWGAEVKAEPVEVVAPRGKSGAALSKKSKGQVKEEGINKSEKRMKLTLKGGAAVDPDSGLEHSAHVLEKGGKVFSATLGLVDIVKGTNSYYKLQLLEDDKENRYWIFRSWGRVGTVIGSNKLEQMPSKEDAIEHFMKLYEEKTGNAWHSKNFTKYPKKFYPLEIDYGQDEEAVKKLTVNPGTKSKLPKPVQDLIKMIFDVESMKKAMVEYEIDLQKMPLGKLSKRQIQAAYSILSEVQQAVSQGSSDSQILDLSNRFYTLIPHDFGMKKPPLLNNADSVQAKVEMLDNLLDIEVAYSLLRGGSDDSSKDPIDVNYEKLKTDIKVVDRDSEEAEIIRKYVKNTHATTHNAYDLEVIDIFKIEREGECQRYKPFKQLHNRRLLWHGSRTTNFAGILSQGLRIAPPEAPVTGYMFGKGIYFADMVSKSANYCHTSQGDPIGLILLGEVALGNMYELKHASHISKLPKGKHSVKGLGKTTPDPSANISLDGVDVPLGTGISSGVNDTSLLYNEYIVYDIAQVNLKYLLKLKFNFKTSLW
# From the text: PARP1 biochemical assay was purchased as a kit from Trevigen (cat.#4676-096-K) and used per manufacturers recommendations.
# PARP2 = PARP2 (Homo sapiens (Human), UniProt Q9UGN5); experiment: PARP2 biochemical assay (BPS kit)
# Sequence of PARP2 (Q9UGN5 whole entry): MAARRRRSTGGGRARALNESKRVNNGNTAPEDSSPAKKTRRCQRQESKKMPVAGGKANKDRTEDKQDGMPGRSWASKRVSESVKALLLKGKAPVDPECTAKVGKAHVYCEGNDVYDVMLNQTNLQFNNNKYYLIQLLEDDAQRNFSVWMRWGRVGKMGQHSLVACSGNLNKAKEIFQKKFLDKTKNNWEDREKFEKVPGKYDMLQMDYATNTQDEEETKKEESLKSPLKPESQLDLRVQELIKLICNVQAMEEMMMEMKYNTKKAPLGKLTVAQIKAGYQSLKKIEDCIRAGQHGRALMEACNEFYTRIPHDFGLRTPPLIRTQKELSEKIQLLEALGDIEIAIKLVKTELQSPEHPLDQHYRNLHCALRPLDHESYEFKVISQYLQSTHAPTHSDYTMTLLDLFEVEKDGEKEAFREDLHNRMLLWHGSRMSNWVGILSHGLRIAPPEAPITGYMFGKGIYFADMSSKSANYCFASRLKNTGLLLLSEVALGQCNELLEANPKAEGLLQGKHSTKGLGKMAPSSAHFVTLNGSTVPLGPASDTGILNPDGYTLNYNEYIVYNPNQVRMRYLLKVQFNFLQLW
# [4] = test system: total β-catenin in SW480 colorectal cells; experiment: Total β-catenin MSD 96-well plate assay for SW480 cells; settings: Homo sapiens, SW480, read-out: SW480-Total beta-catenin (TBC) IC50 IP
# Sequence of 6×HIS-tankyrase 2 (946-1162) (Q9H2K2 946-1162): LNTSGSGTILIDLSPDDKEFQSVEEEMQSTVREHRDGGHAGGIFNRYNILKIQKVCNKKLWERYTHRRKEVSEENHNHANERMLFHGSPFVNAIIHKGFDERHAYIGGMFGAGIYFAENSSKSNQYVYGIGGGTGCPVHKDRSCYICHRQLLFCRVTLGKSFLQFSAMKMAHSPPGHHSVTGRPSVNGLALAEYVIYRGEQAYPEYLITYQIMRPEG
# Sequence of 6×HIS-tankyrase1 (1091-1325) (O95271 1091-1325): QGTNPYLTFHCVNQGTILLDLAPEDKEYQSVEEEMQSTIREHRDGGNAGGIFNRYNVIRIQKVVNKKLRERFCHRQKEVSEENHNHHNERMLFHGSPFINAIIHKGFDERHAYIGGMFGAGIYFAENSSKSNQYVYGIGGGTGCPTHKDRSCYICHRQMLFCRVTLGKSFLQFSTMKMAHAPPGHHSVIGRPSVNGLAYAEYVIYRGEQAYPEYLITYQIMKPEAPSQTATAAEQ
IC50 [1] [nM],IC50 [2] [nM],EC50 [3] [nM],IC50 (PARP1) [nM],IC50 (PARP2) [nM],IC50 [4] [nM],Compound
161,199,3990,3460,806,2730,"O=C(CCc1nc2ccccc2c(=O)[nH]1)N1CCC(c2nnc(-c3ccccc3)o2)CC1 [Example 98, 2-(3-oxo-3-(4-(5-phenyl-1,3,4-oxadiazol-2-yl)piperidin-1-yl)propyl)quinazolin-4(3H)-one]"
88.4,29.5,2950,7630,4670,> 10000,"O=C(CCCSc1nc2ccccc2c(=O)[nH]1)N1CCC(c2nnc(-c3ccccc3)o2)CC1 [Example 111, 2-((4-oxo-4-(4-(5-phenyl-1,3,4-oxadiazol-2-yl)piperidin-1-yl)butyl)thio)quinazolin-4(3H)-one]"
0.549,0.43,30.2,1670,889,14.9,"O=C(CCCc1nc2ccccc2c(=O)[nH]1)N[C@H]1CC[C@H](c2nnc(-c3ccc(Cl)cc3)o2)CC1 [Example 29, N-(trans-4-(5-(4-chlorophenyl)-1,3,4-oxadiazol-2-yl)cyclohexyl)-4-(4-oxo-3,4-dihydro-2-quinazolinyl)butanamide]"
0.153,1.38,4.47,> 9440,7690,3.04,"O=C(CCSc1nc2ccccc2c(=O)[nH]1)N[C@H]1CC[C@H](c2nnc(-c3ccc(F)c(Cl)c3)o2)CC1 [Example 122, N-((1r,4r)-4-(5-(3-chloro-4-fluorophenyl)-1,3,4-oxadiazol-2-yl)cyclohexyl)-3-((4-oxo-3,4-dihydroquinazolin-2-yl)thio)propanamide]"
2.51,0.719,266,5820,1100,73.6,"O=C(CCCc1nc2ccccc2c(=O)[nH]1)N[C@H]1CC[C@H](Oc2ccccn2)CC1 [Example 56, 4-(4-oxo-3,4-dihydro-2-quinazolinyl)-N-(trans-4-(2-pyridinyloxyl)cyclohexyl)butanamide]"
1.97,0.981,96.9,629,431,101,"COc1ccc2[nH]c(=O)n(C3CCN(C(=O)CCCc4nc5ccccc5c(=O)[nH]4)CC3)c2c1 [Example 34, 2-(4-(4-(6-methoxy-2-oxo-2,3-dihydro-1H-benzimidazol-1-yl)-1-piperidinyl)-4-oxobutyl)-4(3H)-quinazolinone]"
1.76,0.401,193,1800,284,46.5,"O=C(CCCc1nc2ccccc2c(=O)[nH]1)N1CCN(c2n[nH]c3ccccc23)CC1 [Example 55, 2-(4-(4-(1H-indazol-3-yl)-1-piperazinyl)-4-oxobutyl)-4(3H)-quinazolinone]"
31.4,12.5,2680,1510,345,726,"O=C(CCSc1nc2ccccc2c(=O)[nH]1)N1CCC(c2nnc(-c3ccccc3)o2)CC1 [Example 83, 2-((3-oxo-3-(4-(5-phenyl-1,3,4-oxadiazol-2-yl)piperidin-1-yl)propyl)thio)quinazolin-4(3H)-one]"
15,4.86,291,4920,1120,248,"O=C(CCCc1nc2ccccc2c(=O)[nH]1)N1CCC(c2nnc(-c3ccncc3)o2)CC1 [Example 19, 2-(4-oxo-4-(4-(5-(4-pyridinyl)-1,3,4-oxadiazol-2-yl)-1-piperidinyl)butyl)-4(3H)-quinazolinone]"
19.4,4.13,333,3130,1590,217,"Cc1cccc(-c2nnc(C3CCN(C(=O)CCCc4nc5ccccc5c(=O)[nH]4)CC3)o2)c1 [Example 22, 2-(4-oxo-4-(4-(5-(m-tolyl)-1,3,4-oxadiazol-2-yl)piperidin-1-yl)butyl)quinazolin-4(3H)-one]"
0.0724,18.1,1.98,4430,6780,1.1,"COc1ccc(-c2nnc([C@H]3CC[C@H](NC(=O)CCSc4nc5ccccc5c(=O)[nH]4)CC3)o2)cc1 [Example 121, N-((1r,4r)-4-(5-(4-methoxyphenyl)-1,3,4-oxadiazol-2-yl)cyclohexyl)-3-((4-oxo-3,4-dihydroquinazolin-2-yl)thio)propanamide]"
17.1,4.89,242,2030,1450,154,"N#Cc1ccc(-c2nnc(C3CCN(C(=O)CCCc4nc5ccccc5c(=O)[nH]4)CC3)o2)cc1 [Example 21, 4-(5-(1-(4-(4-oxo-3,4-dihydroquinazolin-2-yl)butanoyl)piperidin-4-yl)-1,3,4-oxadiazol-2-yl)benzonitrile]"
15,3.35,126,3170,1200,86.9,"COc1ccc(-c2nnc(C3CCN(C(=O)CCCc4nc5ccccc5c(=O)[nH]4)CC3)o2)cc1 [Example 15, 2-(4-(4-(5-(4-methoxyphenyl)-1,3,4-oxadiazol-2-yl)-1-piperidinyl)-4-oxobutyl)-4(3H)-quinazolinone]"
3.97,8.78,1020,> 85000,> 170000,1680,"Nc1cc(=O)[nH]c(SCCC(=O)N[C@H]2CC[C@H](c3nnc(-c4ccccc4)o3)CC2)n1 [Example 91, 3-((4-amino-6-oxo-1,6-dihydro-2-pyrimidinyl)sulfanyl)-N-(trans-4-(5-phenyl-1,3,4-oxadiazol-2-yl)cyclohexyl)propanamide]"
54.4,20.9,732,4470,1120,760,"O=C(CCCc1nc2ccccc2c(=O)[nH]1)N1CCC(c2nnc(-c3ccccc3F)o2)CC1 [Example 18, 2-(4-(4-(5-(2-fluorophenyl)-1,3,4-oxadiazol-2-yl)-1-piperidinyl)-4-oxobutyl)-4(3H)-quinazolinone]"
646,152,6390,3790,916,2190,"O=C(CCCc1nc2ccccc2c(=O)[nH]1)N1CCC(c2nnc(COc3ccc(Cl)cc3)o2)CC1 [Example 17, 2-(4-(4-(5-((4-chlorophenoxy)methyl)-1,3,4-oxadiazol-2-yl)-1-piperidinyl)-4-oxobutyl)-4(3H)-quinazolinone]"
2.85,0.614,192,2550,292,42.3,"O=C(CCCc1nc2ccccc2c(=O)[nH]1)N[C@H]1CC[C@H](Oc2ccc(Cl)cc2)CC1 [Example 79, N-(trans-4-(4-chlorophenoxy)cyclohexyl)-4-(4-oxo-3,4-dihydro-2-quinazolinyl)butanamide]"
8.05,4.91,3380,1490,500,1710,"O=C(CCCc1nc2ccccc2c(=O)[nH]1)N1CCC(n2c(=O)[nH]c3ccccc32)CC1 [Example 41, 2-(4-oxo-4-(4-(2-oxo-2,3-dihydro-1H-benzimidazol-1-yl)-1-piperidinyl)butyl)-4(3H)-quinazolinone trifluoroacetic acid]"
31.2,12.5,1710,5960,905,510,"N#Cc1ccccc1O[C@H]1CC[C@H](NC(=O)CCCc2nc3ccccc3c(=O)[nH]2)CC1 [Example 57, N-(trans-4-(2-cyanophenoxy)cyclohexyl)-4-(4-oxo-3,4-dihydro-2-quinazolinyl)butanamide]"
95.2,85.1,1230,8290,> 170000,1200,"O=C(CCSCc1nc2ccccc2c(=O)[nH]1)N1CCC(c2nnc(-c3ccc(F)cc3)o2)CC1 [Example 93, 2-(((3-(4-(5-(4-fluorophenyl)-1,3,4-oxadiazol-2-yl)-1-piperidinyl)-3-oxopropyl)sulfanyl)methyl)-4(3H)-quinazolinone]"
39.1,17,3630,3200,673,1120,"Cn1c(=O)n(C2CCN(C(=O)CCCc3nc4ccccc4c(=O)[nH]3)CC2)c2ccccc21 [Example 54, 2-(4-(4-(3-methyl-2-oxo-2,3-dihydro-1H-benzimidazol-1-yl)-1-piperidinyl)-4-oxobutyl)-4(3H)-quinazolinone]"
5.1,0.826,191,723,1810,252,"O=C(CCCc1nc2ccccc2c(=O)[nH]1)N[C@H]1CC[C@H](Oc2ccncc2)CC1 [Example 70, 4-(4-oxo-3,4-dihydro-2-quinazolinyl)-N-(trans-4-(4-pyridinyloxyl)cyclohexyl)butanamide]"
15.8,4.44,287,2270,2420,145,"O=C(CCSCc1nc2ccccc2c(=O)[nH]1)N[C@H]1CC[C@H](c2nnc(-c3ccccc3)o2)CC1 [Example 92, 3-(((4-oxo-3,4-dihydro-2-quinazolinyl)methyl)sulfanyl)-N-(trans-4-(5-phenyl-1,3,4-oxadiazol-2-yl)cyclohexyl)propanamide]"
